Experimental data reported in publication PMC8899577, “Targeting the anti-apoptotic Bcl-2 family proteins: machine learning virtual screening and biological evaluation of new small molecules” (Theranostics, 2022).

What was measured:
Bcl-2 = Bcl-2 (Homo sapiens, UniProt P10415); assay: SPR binding to immobilized Bcl-2; conditions: for Kd: SPR, 25 °C, 2-site fit, highest affinity site
Method: FastStep experiments were performed with a SensiQ Pioneer apparatus. Bcl-2 immobilization on COOH5 sensorchips was carried out essentially as previously reported, [40]. All the experiments were carried out at 25 °C in degassed HEPES 20 mM, pH 7.4, NaCl 150 mM, 0.005% surfactant P20 + 2% DMSO (HBSP2%D). […] Each sensorgram is the average of at least three experiments. The decrease in Response Units (RU) after 165 s indicates analyte dissociation from the immobilized Bcl-2 upon HSBP2%D buffer injection. Control SPR experiments were carried out measuring sensorgrams on Bcl-xL and Mcl-1 (ligands) immobilized on COOH5 sensorchips as previously reported at 25 °C in degassed HBSP2%D buffer. […] Each sensorgram is the average of at least three experiments. The decrease in RU after 180 s indicates analyte dissociation from the immobilized ligands upon HSBP2%D buffer injection. Kinetic evaluation of the sensorgrams was carried out using the Qdat 4.0 program; best fittings were obtained with 2 sites and indicated in red (reported KD values refer to dissociation constants of the highest affinity site).
Figure 2 SPR analysis of the interaction between putative inhibitors of Bcl-2 anti-apoptotic members and Bcl-2 protein. Bcl-2 was immobilized via amine coupling onto a COOH5 sensorchip; Bcl-2 family inhibitors (analytes) were injected at a flow rate = 100 μL/min, at the following concentrations. 0-30 s: 0.625 μM; 31-60 s: 1.25 μM; 61-90 s: 2.5 μM; 91-120 s: 5 μM; 121-150 s: 10 μM; 151-165 s: 20 μM. The increase in Response Units (RU) relative to baseline indicates complex formation between the immobilized Bcl-2 ligand and the analytes upon Bcl-2 family inhibitors injection. The decrease in RU after 165 s indicates analyte dissociation from the immobilized Bcl-2 upon buffer injection. Full fittings with 2 sites are indicated in red. The fitted KD values are the following.

M14 cells = assay: Clonogenic assay, M14; type: cell-based, Human; conditions: 20 µM for 72 h, respect to controls
Method: The effect of compounds on cell viability was performed by measuring 3-[4,5-dimethylthiazol-2-yl]-2,5-diphenyltetrazolium bromide inner salt (MTT, Sigma-Aldrich) dye absorbance (solid tumor cells) or by quantization of ATP present in metabolically active cells using CellTiter-Glo® Luminescent (Promega, Fitchburg, Wisconsin, USA) (hematologic cells) following manifacturer's protocol. To evaluate the cell colony-forming ability, cell suspension from different samples was seeded into 60-mm Petri dishes. After 10 days, colonies were stained with 2% methylene blue in 95% ethanol and counted (1 colony > 50 cells). The surviving fractions were calculated as the ratio of absolute survival of the treated sample/survival of DMSO-treated control sample.
Figure 4 Analysis of the effect of IS20 and IS21 on cell viability, clonogenic ability and tumor sphere formation in cancer cells. […] (B) Representative images and quantification of clonogenic ability evaluated in M14 and H1299 cells treated with IS20 or IS21 (20 μM for 72 h). […] (C) Quantification of tumor sphere formation of M14 and H1299 cells treated with IS20 or IS21 (20 μM for 72 h). […] (A-C) Data are reported as mean ± SD of three independent experiments. p-values were calculated between control (Ctrl) and treated cells, ** p < 0.001 and *** p < 0.0001.

MDA-MB-231 cells = assay: Western blot of PARP1 cleavage, MDA-MB-231; type: cell-based, Human; conditions: 72 h
Method: (§1) Western blot analyses of total protein extracts were performed as previously described. Immunodetection was performed using antibodies directed to poly (ADP-ribose) polymerase (PARP; BD Biosciences San Diego, CA, USA), LC3B (Cell Signaling Technology, Danvers, MA), HSP72/73 (Calbiochem, EMD Biosciences, La Jolla, CA), Bcl-2 (SC-509, Santa Cruz Biotechnology Inc, Dallas, TX, USA), Bcl-xL (SC-271121, Santa Cruz Biotechnology Inc), Mcl-1 (SC-12756, Santa Cruz Biotechnology Inc) α-tubulin (Santa Cruz Biotechnology Inc) actin (Sigma-Aldrich, St. Louis, Missouri, USA). Anti-rabbit or anti-mouse immunoglobulin G-horseradish peroxidase-conjugated antibodies (Amersham Biosciences, Freiburg, Germany) were used as secondary antibody. Images were acquired by Image Lab Software (Bio-Rad, Hercules, CA, USA), using a ChemiDoc System instrument (Bio-Rad). […]
(§2) Figure 5 Analysis of apoptosis induction by IS20 and IS21 in leukemia, melanoma and NSCLC cells. […] (G) Flow cytometric quantification of cells in the subG1 peak of cell cycle distribution by propidium iodide staining in HL60 cell line treated with IS20 or IS21 (20 μM for 24 h) and in M14, H1299 and MDA-MB-231 cell lines treated with IS20 or IS21 (20 μM for 72 h). Data are reported as mean ± SD of three independent experiments. p-values were calculated between control (Ctrl) and treated cells, * p < 0.05. […]

U937 cells [1] = assay: Western blot of PARP1 cleavage, U937; type: cell-based, Human; conditions: 20 µM for 24 h
Method: as §1, §2

U937 cells [2] = assay: Western blot of LC3B-I/LC3B-II (autophagy), U937; type: cell-based, Human; conditions: 20 µM for 24 h

Chain of Bcl-2 (P10415 whole entry): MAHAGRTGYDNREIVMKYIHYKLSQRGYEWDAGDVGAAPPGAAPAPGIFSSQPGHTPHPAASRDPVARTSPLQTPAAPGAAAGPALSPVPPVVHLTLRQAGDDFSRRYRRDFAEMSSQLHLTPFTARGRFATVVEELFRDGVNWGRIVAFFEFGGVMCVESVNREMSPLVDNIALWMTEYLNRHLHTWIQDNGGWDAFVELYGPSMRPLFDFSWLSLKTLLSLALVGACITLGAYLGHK

Row | Compound | Kd (Bcl-2) [µM] | selectivity for Bcl-2 than for Mcl-1 (Bcl-2; selectivity index from KD) [times] | decrease of cell colony formation, M14 (M14 cells) | PARP1 cleavage, MDA-MB-231 (MDA-MB-231 cells) | PARP1 cleavage, U937 (U937 cells [1]) | ratio of LC3B-II on LC3B-I, U937 (U937 cells [2]) | selectivity for Bcl-2 than for Bcl-xL (Bcl-2; selectivity index from KD)
1 | CCCCOc1ccc(C2/C(=C(\O)c3ccc4c(c3)CC(C)O4)C(=O)C(=O)N2c2nnc(SCc3ccc(Cl)cc3)s2)cc1OCC (stereo not shown) [IS20] | 0.32 ± 0.09 | 12 | 80-90% | not evident | cleavage of PARP1 | Increased ratio | 
2 | CCCCCOc1ccc(C2/C(=C(\O)c3ccc4c(c3)CC(C)O4)C(=O)C(=O)N2c2nnc(SCc3ccc(Cl)cc3)s2)cc1OCC (stereo not shown) [IS21] | 0.19 ± 0.07 | ~6 | 80-90% | not evident | cleavage of PARP1 | Increased ratio | about 2.7 times
